Source: patent US20080293681A1, “SPRAYABLE PHARMACEUTICAL COMPOSITIONS COMPRISING A VITAMIN D DERIVATIVE AND AN OILY PHASE” (GALDERMA S.A., priority 2005, published 2008)

What was measured:
[1] = Stability of calcitriol in Miglyol 812 (caprylic/capric triglycerides), HPLC assay against reference substance; assay type: physicochemical; settings: 30 ppm in Miglyol 812 with 0.4% BHT
Description: (§1) The following example describes the stability data for calcitriol in the various excipients preferred for the composition according to the invention, including caprylic/capric triglycerides and cetearyl isononanoate. Stability of calcitriol in Miglyol 812 (caprylic/capric triglycerides) Solution of calcitriol at 30 ppm in qs 100% of Miglyol 812 in the presence of 0.4% of BHT. Assaying technique by HPLC against reference substance. At the initial time (T0), it is considered that the composition contains 100% of calcitriol. Measured concentration of calcitriol as % relative to T0: […]

[2] = Stability of calcitriol in Cetiol SN (cetearyl isononanoate), HPLC assay against reference substance; assay type: physicochemical; settings: 30 ppm in Cetiol SN with 0.4% BHT
Description: as §1, with “Cetiol SN (cetearyl isononanoate)” for “Miglyol 812 (caprylic/capric triglycerides)”, “Cetiol SN (cetearyl isononanoate)” for “Miglyol 812”

C=C1/C(=C\C=C2/CCC[C@]3(C)[C@@H]([C@H](C)CCCC(C)(C)O)CC[C@@H]23)C[C@@H](O)C[C@@H]1O [calcitriol]
Measured concentration of calcitriol as % relative to T0 ([1]; +4° C., T 2 weeks): 98.3% | Measured concentration of calcitriol as % relative to T0 ([1]; +4° C., T 4 weeks): 105.2% | Measured concentration of calcitriol as % relative to T0 ([1]; +40° C., T 2 weeks): 91% | Measured concentration of calcitriol as % relative to T0 ([1]; +40° C., T 4 weeks): 93.8% | Measured concentration of calcitriol as % relative to T0 ([1]; AT, T 2 weeks): 95.1% | Measured concentration of calcitriol as % relative to T0 ([1]; AT, T 4 weeks): 98.0% | Measured concentration of calcitriol as % relative to T0 ([2]; +4° C., T 2 weeks): 98.6% | Measured concentration of calcitriol as % relative to T0 ([2]; +4° C., T 4 weeks): 98.1% | Measured concentration of calcitriol as % relative to T0 ([2]; +40° C., T 2 weeks): 99.0% | Measured concentration of calcitriol as % relative to T0 ([2]; +40° C., T 4 weeks): 98.9% | Measured concentration of calcitriol as % relative to T0 ([2]; AT, T 2 weeks): 98.7% | Measured concentration of calcitriol as % relative to T0 ([2]; AT, T 4 weeks): 98.4%
